Data reported in ChEMBL document CHEMBL1201862, “PubChem BioAssay data set” (2004).
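Tested at 5 concentrations; 48 h exposure; 96-well plates; endpoints linearly interpolated, else capped at highest concentration. Here, GI50 denotes the concentration required for 50% inhibition of growth.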 Active and inactive are the calls of the source. No stated cut-off is given here; in the data, active = GI50 up to about 1.1 µM and inactive = higher.

Experiments:
Assay in all cases: inhibition of tumour cell growth, NCI panel, 48 h
[1] = test system: BT-549
[2] = test system: HT-29
[3] = test system: OVCAR-3
[4] = test system: TK-10
[5] = test system: SK-OV-3
[6] = test system: U-251
[7] = test system: HCT-116
[8] = test system: NCI-H522
[9] = test system: SK-MEL-28
[10] = test system: Malme-3M
[11] = test system: KM12
[12] = test system: T47D
[13] = test system: A498
[14] = test system: SF-539
[15] = test system: SN12C
[16] = test system: ACHN
[17] = test system: SF-268
[18] = test system: IGROV-1
[19] = test system: NCI-H226
[20] = test system: SK-MEL-5
[21] = test system: HCC 2998
[22] = test system: MDA-MB-231
[23] = test system: NCI-H23
[24] = test system: SW-620
[25] = test system: UACC-257
[26] = test system: HCT-15
[27] = test system: MOLT-4
[28] = test system: Hs-578T
[29] = test system: MDA-N
[30] = test system: SNB-19
[31] = test system: OVCAR-8
[32] = test system: NCI-H460
[33] = test system: UACC-62
[34] = test system: SF-295
[35] = test system: UO-31
[36] = test system: K562
[37] = test system: HL-60
[38] = test system: DU-145
[39] = test system: CAKI-1
[40] = test system: CCRF-CEM
[41] = test system: SK-MEL-2
[42] = test system: A549
[43] = test system: MCF7
[44] = test system: 786-0
[45] = test system: SNB-75
[46] = test system: HOP-62
[47] = test system: OVCAR-5
[48] = test system: NCI/ADR-RES
[49] = test system: M14
[50] = test system: MDA-MB-435
[51] = test system: COLO 205
[52] = test system: PC-3
[53] = test system: SR
[54] = test system: RXF 393
[55] = test system: OVCAR-4
[56] = test system: LOX IMVI
[57] = test system: RPMI-8226
[58] = test system: EKVX
[59] = test system: HOP-92

O=C(O)Cn1ccc(=O)c2c([N+](=O)[O-])cccc21
GI50 [1]: > 100 µM (inactive)
GI50 [2]: > 100 µM (inactive)
GI50 [3]: > 100 µM (inactive)
GI50 [4]: > 100 µM (inactive)
GI50 [5]: > 100 µM (inactive)
GI50 [6]: > 100 µM (inactive)
GI50 [7]: > 100 µM (inactive)
GI50 [8]: > 100 µM (inactive)
GI50 [9]: > 100 µM (inactive)
GI50 [10]: > 100 µM (inactive)
GI50 [11]: > 100 µM (inactive)
GI50 [12]: > 100 µM (inactive)
GI50 [13]: > 100 µM (inactive)
GI50 [14]: > 100 µM (inactive)
GI50 [15]: > 100 µM (inactive)
GI50 [16]: > 100 µM (inactive)
GI50 [17]: > 100 µM (inactive)
GI50 [18]: > 100 µM (inactive)
GI50 [19]: > 100 µM (inactive)
GI50 [20]: > 100 µM (inactive)
GI50 [21]: > 100 µM (inactive)
GI50 [22]: > 100 µM (inactive)
GI50 [23]: > 100 µM (inactive)
GI50 [24]: > 100 µM (inactive)
GI50 [25]: > 100 µM (inactive)
GI50 [26]: > 100 µM
GI50 [27]: > 100 µM (inactive)
GI50 [28]: > 100 µM (inactive)
GI50 [29]: > 100 µM (inactive)
GI50 [30]: > 100 µM (inactive)
GI50 [31]: > 100 µM (inactive)
GI50 [32]: > 100 µM (inactive)
GI50 [33]: > 100 µM (inactive)
GI50 [34]: > 100 µM (inactive)
GI50 [35]: > 100 µM (inactive)
GI50 [36]: > 100 µM (inactive)
GI50 [37]: > 100 µM (inactive)
GI50 [38]: > 100 µM (inactive)
GI50 [39]: > 100 µM (inactive)
GI50 [40]: > 100 µM (inactive)
GI50 [41]: > 100 µM (inactive)
GI50 [42]: > 100 µM (inactive)
GI50 [43]: > 100 µM (inactive)
GI50 [44]: > 100 µM (inactive)
GI50 [45]: > 100 µM (inactive)
GI50 [46]: > 100 µM (inactive)
GI50 [47]: > 100 µM (inactive)
GI50 [48]: > 100 µM (inactive)
GI50 [49]: > 100 µM (inactive)
GI50 [50]: > 100 µM (inactive)
GI50 [51]: > 100 µM (inactive)
GI50 [52]: > 100 µM (inactive)
GI50 [53]: > 100 µM (inactive)

O=C1c2cc3ccccc3cc2C2(c3ccc(Cl)cc3)NCCN12 (stereo unspecified)
GI50 [1]: 54 µM (inactive)
GI50 [2]: 34.8 µM (inactive)
GI50 [3]: 23.6 µM (inactive)
GI50 [4]: 34.8 µM (inactive)
GI50 [5]: 29.3 µM (inactive)
GI50 [6]: 34.9 µM (inactive)
GI50 [7]: 18 µM (inactive)
GI50 [9]: 39.6 µM (inactive)
GI50 [11]: 20.7 µM (inactive)
GI50 [12]: 39.7 µM (inactive)
GI50 [13]: 77.3 µM (inactive)
GI50 [14]: 23 µM (inactive)
GI50 [15]: 49.5 µM (inactive)
GI50 [16]: 33 µM (inactive)
GI50 [17]: 44.2 µM (inactive)
GI50 [18]: 27.4 µM (inactive)
GI50 [19]: 34.5 µM (inactive)
GI50 [20]: 20 µM (inactive)
GI50 [21]: 21.1 µM (inactive)
GI50 [54]: 21.8 µM (inactive)
GI50 [22]: 87.7 µM (inactive)
GI50 [23]: 22.1 µM (inactive)
GI50 [24]: 50.4 µM (inactive)
GI50 [25]: 31.8 µM (inactive)
GI50 [26]: 27 µM
GI50 [55]: 52.5 µM (inactive)
GI50 [27]: 33.2 µM (inactive)
GI50 [28]: 38.3 µM (inactive)
GI50 [29]: 28.2 µM (inactive)
GI50 [30]: 24.5 µM (inactive)
GI50 [31]: 33.3 µM (inactive)
GI50 [32]: 29.6 µM (inactive)
GI50 [33]: 19.2 µM (inactive)
GI50 [34]: 25.5 µM (inactive)
GI50 [35]: 29.9 µM (inactive)
GI50 [36]: 61.7 µM (inactive)
GI50 [37]: 25.8 µM (inactive)
GI50 [38]: 40.6 µM (inactive)
GI50 [39]: 44.7 µM (inactive)
GI50 [40]: 33 µM (inactive)
GI50 [56]: 21.9 µM (inactive)
GI50 [41]: 24.6 µM (inactive)
GI50 [42]: 28.4 µM (inactive)
GI50 [43]: 26.2 µM (inactive)
GI50 [44]: 38.1 µM (inactive)
GI50 [45]: 27.8 µM (inactive)
GI50 [57]: 29.4 µM (inactive)
GI50 [58]: 26.5 µM (inactive)
GI50 [46]: 32.4 µM (inactive)
GI50 [47]: 21.5 µM (inactive)
GI50 [48]: 32.8 µM (inactive)
GI50 [59]: 34.4 µM (inactive)
GI50 [49]: 26.8 µM (inactive)
GI50 [50]: 33 µM (inactive)
GI50 [51]: 17.6 µM (inactive)
GI50 [52]: 31.1 µM (inactive)
GI50 [53]: 29 µM (inactive)

Cc1nn(C(=O)c2ccc(Cl)cc2)c2c1C(c1ccco1)SC(=N)N2 (stereo unspecified)
GI50 [1]: > 10 µM (inactive)
GI50 [2]: > 10 µM (inactive)
GI50 [3]: > 10 µM (inactive)
GI50 [4]: > 10 µM (inactive)
GI50 [5]: > 10 µM (inactive)
GI50 [6]: > 10 µM (inactive)
GI50 [7]: > 10 µM (inactive)
GI50 [8]: > 10 µM (inactive)
GI50 [9]: > 10 µM (inactive)
GI50 [11]: > 10 µM (inactive)
GI50 [12]: > 10 µM (inactive)
GI50 [14]: > 10 µM (inactive)
GI50 [15]: > 10 µM (inactive)
GI50 [16]: > 10 µM (inactive)
GI50 [17]: > 10 µM (inactive)
GI50 [18]: > 10 µM (inactive)
GI50 [19]: > 10 µM (inactive)
GI50 [20]: > 10 µM (inactive)
GI50 [21]: > 10 µM (inactive)
GI50 [54]: > 10 µM (inactive)
GI50 [22]: > 10 µM (inactive)
GI50 [23]: > 10 µM (inactive)
GI50 [24]: > 10 µM (inactive)
GI50 [25]: > 10 µM (inactive)
GI50 [26]: > 10 µM
GI50 [55]: > 10 µM (inactive)
GI50 [27]: > 10 µM (inactive)
GI50 [28]: > 10 µM (inactive)
GI50 [29]: > 10 µM (inactive)
GI50 [30]: > 10 µM (inactive)
GI50 [31]: > 10 µM (inactive)
GI50 [32]: > 10 µM (inactive)
GI50 [33]: > 10 µM (inactive)
GI50 [34]: > 10 µM (inactive)
GI50 [36]: > 10 µM (inactive)
GI50 [37]: > 10 µM (inactive)
GI50 [38]: > 10 µM (inactive)
GI50 [39]: > 10 µM (inactive)
GI50 [40]: > 10 µM (inactive)
GI50 [56]: > 10 µM (inactive)
GI50 [41]: > 10 µM (inactive)
GI50 [42]: > 10 µM (inactive)
GI50 [43]: > 10 µM (inactive)
GI50 [44]: > 10 µM (inactive)
GI50 [45]: > 10 µM (inactive)
GI50 [57]: > 10 µM (inactive)
GI50 [58]: > 10 µM (inactive)
GI50 [46]: > 10 µM (inactive)
GI50 [47]: > 10 µM (inactive)
GI50 [48]: > 10 µM (inactive)
GI50 [59]: > 10 µM (inactive)
GI50 [49]: > 10 µM (inactive)
GI50 [50]: > 10 µM (inactive)
GI50 [51]: > 10 µM (inactive)
GI50 [52]: > 10 µM (inactive)
GI50 [53]: > 10 µM (inactive)
